Laboratory results as given in patent US20100004159A1, “SUBSTITUTED IMIDAZOLONE DERIVATIVES, PREPARATIONS AND USES” (GENFIT, priority 2006, published 2010).

melting point [°C] | Compound
157 | CCCCC1=NC2(CCCC2)C(=O)N1Cc1ccc(-c2cccc(OC(C)(C)C(=O)O)c2)c(OC)c1 [Compound 90]
199 to 201 | CCCCC1=NC(c2ccccc2)C(=O)N1Cc1ccc(-c2cc(Br)ccc2OC(C)(C)C(=O)O)cc1 (stereo not drawn) [Compound 26, 1-[(5′-bromo-2′-((1-carboxy-1,1-dimethylmethyl)oxy)biphenyl-4-yl)methyl]-2-butyl-4-phenyl-1H-imidazol-5(4H)-one]
74 | CCCCC1=NC2(CCCC2)C(=O)N1Cc1ccc(-c2cc(OC(CC)C(=O)O)ccc2CCC)cc1 (stereo not drawn) [Compound 85, 2-butyl-1-[(3′-((1-carboxy-1-ethylmethyl)oxy)-6′-propyl-biphenyl-4-yl)methyl]-4-spirocyclopentyl-1H-imidazol-5(4H)-one]
78 | CCCCC1=NC2(CCCC2)C(=O)N1Cc1ccc(-c2ccc(CC(C)C)c(OC(C)(C)C(=O)O)c2)cc1 [Compound 81, 2-butyl-1-[(3′-((1-carboxy-1,1-dimethylmethyl)oxy)-4′-isobutyl-biphenyl-4-yl)methyl]-4-spirocyclopentyl-1H-imidazol-5(4H)-one]
50 to 53 | CCCCC1=NC2(CCCC2)C(=O)N1CCc1ccc(OC(C)(C)C(=O)O)cc1 [Compound 3, 2-butyl-1-[2-(4-((1-carboxy-1,1-dimethylmethyl)oxy)phenyl)ethyl]-4-spirocyclopentyl-1H-imidazol-5(4H)-one]
170 | CCCCC1=NC2(CCCC2)C(=O)N1Cc1cccc(-c2ccc(OC(C)(C)C(=O)O)cc2)c1 [Compound 77, 2-butyl-1-[(4′-((1-carboxy-1,1-dimethylmethyl)oxy)biphenyl-3-yl)methyl]-4-spirocyclopentyl-1H-imidazol-5(4H)-one]
90 to 99 | CCCCC1=NC2(CCCC2)C(=O)N1Cc1ccc(C(=O)c2ccc(OC(C)(C)C(=O)O)cc2)cc1 [Compound 9, 2-butyl-1-[[4-[(4-((1-carboxyl-1,1-dimethylmethyl)oxy)phenyl)carbonyl]phenyl]methyl]-4-spirocyclopentyl-1H-imidazol-5(4H)-one]
162 | CCCCC1=NC2(CCCC2)C(=O)N1Cc1ccc(-c2cccc(OC(C)(C)C(=O)O)c2F)cc1 [Compound 78, 2-butyl-1-[(3′-((1-carboxy-1,1-dimethylmethyl)oxy)-2′-fluoro-biphenyl-4-yl)methyl]-4-spirocyclopentyl-1H-imidazol-5(4H)-one]
76 | CCCCC1=NC2(CCCC2)C(=O)N1Cc1ccc(-c2cc(OCC(=O)O)ccc2CCC)cc1 [Compound 84, 2-butyl-1-[(3′-((1-carboxymethyl)oxy)-6′-propyl-biphenyl-4-yl)methyl]-4-spirocyclopentyl-1H-imidazol-5(4H)-one]
149 to 153 | CC(C)(Oc1cccc(-c2ccc(CN3C(=O)C4(CCCC4)N=C3Cc3ccccc3)cc2)c1)C(=O)O [Compound 28, 2-benzyl-1-[(3′-((1-carboxy-1,1-dimethylmethyl)oxy)biphenyl-4-yl)methyl]-4-spirocyclopentyl-1H-imidazol-5(4H)-one]
213 to 216 | CC(C)CC1=NC2(CCCC2)C(=O)N1Cc1ccc(-c2cccc(OC(C)(C)C(=O)O)c2)cc1 [Compound 27, 1-[(3′-((1-carboxy-1,1-dimethylmethyl)oxy)biphenyl-4-yl)methyl]-2-(2-methyl)propyl-4-spirocyclopentyl-1H-imidazol-5(4H)-one]
68 to 75 | CCCCC1=NC2(CCCCC2)C(=O)N1Cc1ccc(C(=O)c2cccc(OC(C)(C)C(=O)O)c2)cc1 [Compound 11, 2-butyl-1-[[4-[(3-((1-carboxyl-1,1-dimethylmethyl)oxy)phenyl)carbonyl]phenyl]methyl]-4-spirocyclohexyl-1H-imidazol-5(4H)-one]
167 to 169 | CCCCC1=NC(C)(C)C(=O)N1Cc1ccc(C(=O)c2cccc(OC(C)(C)C(=O)O)c2)cc1 [Compound 14, 2-butyl-1-[[4-[(3-((1-carboxyl-1,1-dimethylmethyl)oxy)phenyl)carbonyl]phenyl]methyl]-4,4-dimethyl-1H-imidazol-5(4H)-one]
70 | CCCCC1=NC2(CCCC2)C(=O)N1Cc1cccc(-c2cccc(OC(C)(C)C(=O)O)c2)c1 [Compound 74, 2-butyl-1-[(3′-((1-carboxy-1,1-dimethylmethyl)oxy)biphenyl-3-yl)methyl]-4-spirocyclopentyl-1H-imidazol-5(4H)-one]
95 | CCCCC1=NC2(CCCCC2)C(=O)N1Cc1ccc(-c2cc(OC(C(=O)O)C(C)C)ccc2F)cc1 (stereo not drawn) [Compound 59, 2-butyl-1-[(3′-((1-carboxy-1-(1,1-dimethylmethyl)-methyl)oxy)-6′-fluoro-biphenyl-4-yl)methyl]-4-spirocyclohexyl-1H-imidazol-5(4H)-one]
74 to 80 | CCCCC1=NC2(CCCC2)C(=O)N1Cc1ccc(-c2ccccc2OC(C)(C)C(=O)O)cc1 [Compound 6, 2-butyl-1-[(2′-((1-carboxy-1,1-dimethylmethyl)oxy)biphenyl-4-yl)methyl]-4-spirocyclopentyl-1H-imidazol-5(4H)-one]
< 60 | CCCCC1=NC2(CCCC2)C(=O)N1Cc1ccc(-c2cc(OC(C)(C)C(=O)O)ccc2CCC)cc1 [Compound 76, 2-butyl-1-[(3′-((1-carboxy-1,1-dimethylmethyl)oxy)-6′-propyl-biphenyl-4-yl)methyl]-4-spirocyclopentyl-1H-imidazol-5(4H)-one]
170 to 172 | CCCCC1=NC2(CCCCC2)C(=O)N1Cc1ccc(-c2cc(OC(C)(C)C(=O)O)ccc2Br)cc1 [Compound 22, 1-[(6′-bromo-3′-((1-carboxy-1,1-dimethylmethyl)oxy)biphenyl-4-yl)methyl]-2-butyl-4-spirocyclohexyl-1H-imidazol-5(4H)-one]
